Values quoted from earlier work, collected in patent US20150005255A1, “COSMETIC COMPOSITION, FORMULATION IN GEL-CREAM AND ITS USE” (EMS S.A., priority 2013, published 2015).

Experiments:
[1] = system: localized lipodystrophy
[2] = system: lysosomal enzymes; details: in skin care products

Substance | volume of observed areas with cellulite ([1]; formula of Xantalgosil C applied twice daily for one month, 25 volunteers) | activation of adipocyte lipolysis ([1]; in vivo) | reduction of lysosomal activity [2]
acefylline methylsilanol mannuronate [Xantalgosil C] | reduction of volume in observed areas | outstanding action | 
Escin |  |  | up to 30%
